The record followed here is patent US20260022142A1, “MACROCYCLIC IMMUNOMODULATORS” (Bristol-Myers Squibb Company, priority 2022, published 2026).

Numbered stars: 1 amine (or outer) side, 2 acyl side, 3 side chain; on linkers, the order of the positions; unused ones are H or OH. Bridge positions count the residues as written; N and C are the ends. Square brackets hold non-standard residues; d marks the D form. Peptide text beside a SMILES is read from it. * marks the point of attachment. ξ: configuration not given here. Bip = N[C@@H](Cc1ccc(-c2ccccc2)cc1)C(=O)O; Phe(3-Me) = Cc1cccc(C[C@H](N)C(=O)O)c1; X12 = CC(N)[C@H](N[*:1])C(=O)[*:2]; Cha = N[C@@H](CC1CCCCC1)C(=O)O; Cit = NC(=O)NCCC[C@H](N)C(=O)O; Thr(3ξ) = CC(O)[C@H](N)C(=O)O; Tle = CC(C)(C)[C@H](N)C(=O)O; Carboxymethyl = O=C(O)C*; Orn = NCCC[C@H](N)C(=O)O; Aun = NCCCCCCCCCCC(=O)O; Dab = NCC[C@H](N)C(=O)O; Dap = NC[C@H](N)C(=O)O; Piv = CC(C)(C)C(=O)*

In the assay the target is T1, PD-1/PD-L1 interaction (PE-labeled human PD-L1-Ig binding to Jurkat cell line over-expressing human PD-1) (Homo sapiens, UniProt Q15116).
T1 construct: expressed in transfected cells; host or cells: Jurkat
T1 sequence (Q15116 25-288): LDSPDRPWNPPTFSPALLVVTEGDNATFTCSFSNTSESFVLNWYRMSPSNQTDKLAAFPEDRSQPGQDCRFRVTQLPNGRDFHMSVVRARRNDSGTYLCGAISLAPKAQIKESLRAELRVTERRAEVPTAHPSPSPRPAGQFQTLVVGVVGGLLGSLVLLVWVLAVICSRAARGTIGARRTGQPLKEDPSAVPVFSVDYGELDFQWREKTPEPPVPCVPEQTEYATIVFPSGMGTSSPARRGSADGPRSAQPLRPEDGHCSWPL
Kind of assay: Jurkat-PD-1 Cell Binding High-Content Screening Assay (CBA). The class given is cell-based. The note with it: Jurkat cell line over-expressing human PD-1; PE-labeled PD-L1-Ig 20 nM final; read-out: Jurkat hPD1-PDL1 IC50. The essentials:
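Read-out is high-content imaging of cell-bound phycoerythrin-tagged PD-L1-Ig on fixed, Hoechst-counterstained Jurkat cells that over-express human PD-1. Compound exposure lasts 2 h at 37° C before the labeled ligand (20 nM final) is added for a further hour.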
For orientation: IC50 means the concentration at which inhibition is half-maximal. In the case of `Cc1cccc(C[C@@H]2NC(=O)[C@H](CC(=O)O)NC(=O)[C@H](Cc3ccc(OCC(=O)O)cc3)NC(=O)[C@H](CCNC(=O)C(C)(C)C)NC(=O)CSC[C@@H](C(=O)N[C@@H](CCN)C(=O)NCCCCCCCCCCC(=O)O)NC(=O)[C@H](C(C)O)NC(=O)[C@H](C(C)(C)C)NC(=O)[C@H](CC3CCCCC3)NC(=O)[C@H](CCN)NC(=O)[C@@H](CC(C)C)NC(=O)[C@H](CCCN)NC(=O)[C@H](Cc3ccc(OCC(=O)O)cc3)NC(=O)[C@H](Cc3ccc(-c4ccccc4)cc3)NC(=O)[C@H](Cc3ccc(O)cc3)NC2=O)c1` (stereo partly drawn) [Compound 3517] ({CH2CO}-[Dab](Piv)Y(Carboxymethyl)D[Phe(3-Me)]Y[Bip]Y(Carboxymethyl)[Orn][dL][Dab][Cha][Tle][Thr(3ξ)]C[Dab][Aun]-OH; thioether N-14), the 50% inhibitory concentration (IC50) came to 27.9 nM. The figure for `Cc1cccc(C[C@@H]2NC(=O)[C@H](CC(=O)O)NC(=O)[C@H](Cc3ccc(OCC(=O)O)cc3)NC(=O)[C@H](CNC(=O)C(C)(C)C)NC(=O)CSC[C@@H](C(=O)N[C@@H](CC(N)=O)C(=O)NCCCCCCCCCCC(=O)O)NC(=O)[C@H](C(C)O)NC(=O)[C@H](C(C)(C)C)NC(=O)[C@H](CC3CCCCC3)NC(=O)[C@H](CCN)NC(=O)[C@@H](CC(C)C)NC(=O)[C@H](CCCN)NC(=O)[C@H](Cc3ccc(OCC(=O)O)cc3)NC(=O)[C@H](Cc3ccc(-c4ccccc4)cc3)NC(=O)[C@H](Cc3ccc(O)cc3)NC2=O)c1` (stereo partly drawn) [Compound 3518] ({CH2CO}-[Dap](Piv)Y(Carboxymethyl)D[Phe(3-Me)]Y[Bip]Y(Carboxymethyl)[Orn][dL][Dab][Cha][Tle][Thr(3ξ)]CN[Aun]-OH; thioether N-14) is 35.7 nM. As for `Cc1cccc(C[C@@H]2NC(=O)[C@H](CC(=O)O)NC(=O)[C@H](Cc3ccc(OCC(=O)O)cc3)NC(=O)[C@H](C(C)N)NC(=O)CSC[C@@H](C(=O)N[C@@H](CCN)C(=O)NCCCCCCCCCCC(=O)O)NC(=O)[C@H](CCC(N)=O)NC(=O)[C@H](C(C)O)NC(=O)[C@H](CC3CCCCC3)NC(=O)[C@H](CCN)NC(=O)[C@@H](CC(C)C)NC(=O)[C@H](CCCN)NC(=O)[C@H](Cc3ccc(OCC(=O)O)cc3)NC(=O)[C@H](Cc3ccc(-c4ccccc4)cc3)NC(=O)[C@H](Cc3ccc(OCC(=O)O)cc3)NC2=O)c1` (stereo partly drawn) [Compound 3519] ({CH2CO}-[X12]Y(Carboxymethyl)D[Phe(3-Me)]Y(Carboxymethyl)[Bip]Y(Carboxymethyl)[Orn][dL][Dab][Cha][Thr(3ξ)]QC[Dab][Aun]-OH; thioether N-14), the figure is 10.4 nM; as for `Cc1cccc(C[C@@H]2NC(=O)[C@H](CC(=O)O)NC(=O)[C@H](Cc3ccc(OCC(=O)O)cc3)NC(=O)[C@H](C(C)O)NC(=O)CSC[C@@H](C(=O)N[C@H](CC(N)=O)C(=O)NCCCCCCCCCCC(=O)O)NC(=O)[C@H](C(C)(C)C)NC(=O)[C@H](CO)NC(=O)[C@H](CC3CCCCC3)NC(=O)[C@H](CCN)NC(=O)[C@@H](CC(C)C)NC(=O)[C@H](CCCN)NC(=O)[C@H](Cc3ccc(OCC(=O)O)cc3)NC(=O)[C@H](Cc3ccc(-c4ccccc4)cc3)NC(=O)[C@H](Cc3ccc(O)cc3)NC2=O)c1` (stereo partly drawn) [Compound 3520] ({CH2CO}-[Thr(3ξ)]Y(Carboxymethyl)D[Phe(3-Me)]Y[Bip]Y(Carboxymethyl)[Orn][dL][Dab][Cha]S[Tle]C[dN][Aun]-OH; thioether N-14), 608 nM. Regarding `Cc1cccc(C[C@@H]2NC(=O)[C@H](CC(=O)O)NC(=O)[C@H](Cc3ccc(OCC(=O)O)cc3)NC(=O)[C@H](CCCNC(=N)N)NC(=O)CSC[C@@H](C(=O)N[C@H](CC(N)=O)C(=O)NCCCCCCCCCCC(=O)O)NC(=O)[C@H](C(C)O)NC(=O)[C@H](C(C)O)NC(=O)[C@H](CC3CCCCC3)NC(=O)[C@H](CCN)NC(=O)[C@@H](CC(C)C)NC(=O)[C@H](CCCN)NC(=O)[C@H](CCCNC(N)=O)NC(=O)[C@H](Cc3ccc(-c4ccccc4)cc3)NC(=O)[C@H](C(C)C)NC2=O)c1` (stereo partly drawn) [Compound 3522] ({CH2CO}-RY(Carboxymethyl)D[Phe(3-Me)]V[Bip][Cit][Orn][dL][Dab][Cha][Thr(3ξ)][Thr(3ξ)]C[dN][Aun]-OH; thioether N-14), the 50% inhibitory concentration (IC50) was 40.8 nM.
